Results from patent US4175081A, “5-Substituted thiadiazole ureas” (priority 1977, dated 1979).

How the values were obtained:
[1] = system: Turnip (TP); assay: Post-emergence herbicide test; assay type: in vivo, Brassica sp.; conditions: Brassica rapa, post-emergence, 336 h, two weeks after treatment; for pest or weed control at 8966.8 g/ha: 8 lb/acre
Outline: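 A greenhouse post-emergence herbicide test on turnip. Seeds were sown on the surface of potting soil in 3' plastic pots, lightly covered with screened soil and watered from below. Planting was timed so seedlings had 1 or 2 true leaves above the cotyledons at spraying, done in a hood with a fixed nozzle. Control or injury was scored by eye after two weeks.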

[2] = system: Johnson grass (JG); assay: Pre-emergence herbicide test; assay type: in vivo, Sorgum helepense; conditions: Sorghum halepense, 336 h, 8 lb/acre, two weeks after treatment
Outline: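 Pots seeded one day before spraying; compound applied pre-emergence at 8 lbs/acre (or 4 lbs/acre) in 38 gallons/acre spray volume. Sub-irrigated in greenhouse; injury/control rated visually two weeks after treatment.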

[3] = system: Yellow foxtail grass (YF); assay: Pre-emergence herbicide test; assay type: in vivo, Setaria glauca; conditions: Setaria, 336 h, 8 lb/acre, two weeks after treatment
Outline: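 Seeds surface-sown in potting soil one day before spraying; compounds applied pre-emergence at 8 or 4 lbs/acre in 38 gallons/acre spray. Pots held in greenhouse with sub-irrigation only. Injury or control rated visually two weeks after treatment.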

[4] = system: Crabgrass (CG); assay: Post-emergence herbicide test; assay type: in vivo, Digitaria sanquinalis; conditions: Digitaria sanguinalis, post-emergence, 336 h, two weeks after treatment; for pest or weed control at 8966.8 g/ha: 8 lb/acre
Outline: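 Crabgrass (Digitaria sanquinalis) was surface seeded individually in 3' plastic pots of potting soil, covered with screened soil, and watered by sub-irrigation in greenhouse trays. Planting was staggered so seedlings reached the target stage together. Post-emergence sprays were applied in a hood with a removable belt and fixed nozzle, and control was visually rated two weeks after treatment.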

[5] = system: Crabgrass (CG); assay: Pre-emergence herbicide test; assay type: in vivo, Digitaria sanquinalis; conditions: Digitaria sanguinalis, pre-emergence, 336 h; 8 lb/acre; two weeks after treatment
Outline: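 Crabgrass (Digitaria sanquinalis) was surface seeded in 3' plastic pots of potting soil, covered with screened soil, and watered by sub-irrigation in greenhouse trays. Pots were seeded one day before spraying in a hood with a moving belt and fixed nozzle. Plants stayed in the greenhouse on sub-irrigation, and pre-emergence control was rated visually two weeks after treatment.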

[6] = system: Bean (BN); assay: Pre-emergence herbicide test; assay type: in vivo, Phaseolus vulgaris var. Black Valentine; conditions: Phaseolus vulgaris, 336 h, 8 lb/acre, two weeks after treatment
Outline: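 Black Valentine bean was seeded in potting soil one day before spraying. Compound was applied pre-emergence at 8 lbs/acre (also 4 lbs/acre) in 38 gallons per acre. Plants were sub-irrigated and injury or control was rated visually after two weeks.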

[7] = system: Corn (CN); assay: Pre-emergence herbicide test; assay type: in vivo; conditions: Zea mays, 336 h, 8 lb/acre, two weeks after treatment
Outline: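 Four corn seeds per pot, sown at seed-diameter depth one day before spraying, got soil surface treatment at 8 lbs/acre (4 lbs/acre formulations also prepared) in 38 gallons/acre. Pots were greenhouse-held with sub-irrigation only. Injury or control was scored visually two weeks after treatment.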

[8] = system: Cotton (CT); assay: Pre-emergence herbicide test; assay type: in vivo, Gossypium hirsutum var. DPL smooth leaf; conditions: Gossypium hirsutum, 336 h, 8 lb/acre, two weeks after treatment
Outline: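 Crop and weed species seeded one day before treatment, then sprayed pre-emergence at 8 lbs actual compound per acre (also 4 lbs/acre formulations) in 38 gallons per acre. Pots kept in greenhouse with sub-irrigation only; injury or control visually rated two weeks after treatment.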

[9] = system: Yellow foxtail grass (YF); assay: Post-emergence herbicide test; assay type: in vivo, Setaria glauca; conditions: Setaria, 336 h, two weeks after treatment; for pest or weed control at 8966.8 g/ha: 8 lb/acre
Outline: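 Potted seedlings grown in greenhouse, planting staggered to reach the target stage together, then sprayed post-emergence at 8 lbs actual compound/acre in 38 gallons/acre (4 lbs/acre formulations also prepared). Sub-irrigated afterwards. Injury or control rated visually two weeks after treatment.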

[10] = system: Amaranth pigweed (PW); assay: Pre-emergence herbicide test; assay type: in vivo, Amaranthus retroflexus; conditions: 336 h, 8 lb/acre, two weeks after treatment
Outline: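 Pigweed was surface-seeded in potted soil one day before spraying at 8 lbs compound per acre, or 4 lbs/acre, in 38 gallons per acre. Pots were kept in the greenhouse with sub-irrigation only; injury or control was rated visually two weeks after treatment.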

[11] = system: Bean (BN); assay: Post-emergence herbicide test; assay type: in vivo, Phaseolus vulgaris var. Black Valentine; conditions: Phaseolus vulgaris, post-emergence, 336 h, two weeks after treatment; for pest or weed control at 8966.8 g/ha: 8 lb/acre
Outline: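 Snapbean (Phaseolus vulgaris var. Black Valentine) was tested post-emergence. Four seeds were sown in 3' plastic pots of potting soil at a depth equal to the seed diameter, then sub-irrigated in greenhouse trays. Planting dates were staggered so plants were sprayed once primary leaves had expanded, with the growing point at the primary leaf nodes.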

[12] = system: Corn (CN); assay: Post-emergence herbicide test; assay type: in vivo; conditions: Zea mays, 336 h, two weeks after treatment; for pest or weed control at 8966.8 g/ha: 8 lb/acre
Outline: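 Greenhouse seedlings grown in potting soil and sprayed post-emergence at 8 lbs compound/acre (formulations also made for 4 lbs/acre) in 38 gallons/acre spray volume. Watering by sub-irrigation only. Injury or control rated visually two weeks after treatment.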

[13] = system: Barnyard grass (BG); assay: Pre-emergence herbicide test; assay type: in vivo; conditions: Echinochloa crus-galli, 336 h, 8 lb/acre, two weeks after treatment
Outline: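 Barnyard grass surface-seeded in potting soil and sprayed pre-emergence one day after seeding, at 8 or 4 lb compound/acre in 38 gal/acre spray volume. Pots kept in greenhouse with sub-irrigation only; injury or control rated visually two weeks after treatment.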

[14] = system: Turnip (TP); assay: Pre-emergence herbicide test; assay type: in vivo, Brassica sp.; conditions: Brassica rapa, pre-emergence, 336 h; 8 lb/acre; two weeks after treatment
Outline: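 Turnip (Brassica sp.) seeds were surface sown in 3' plastic pots of potting soil, covered with a thin layer of screened soil, and sub-irrigated in greenhouse trays. Pots were seeded one day ahead of treatment, sprayed pre-emergence under a hood with a fixed nozzle and moving belt, then kept in the greenhouse.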

[15] = system: variety of crops and weed species; assay: Pre- and post-emergence herbicide tests, overall assessment of Tables III-VI; assay type: in vivo; conditions: data of Tables III-VI
Experimental: All crop and weed species were planted individually in 3' plastic pots containing potting soil. Four seeds each of corn, cotton, and snapbeans were seeded to a depth equal to the diameter of the seed. All other species were surface seeded and sprinkled with screened soil in an amount sufficient to cover the seed. Immediately after planting, all pots were watered by sub-irrigation in greenhouse trays. Pots for the pre-emergence phase were seeded one day before treatment.
Compounds were tested at rates of application equivalent to 8 lbs. of actual compound per acre in a spray volume of 38 gallons per acre. Spray hood constants required to deliver the above volume are as follows:
Two weeks after treatment, pre- and post-emergence injury or control was visually rated, and the results were as shown in the following tables. Pre-emergence data are provided in TABLE III and post-emergence data are provided in TABLE IV, for compounds having the formula illustrated in TABLE I. Correspondingly, pre-emergence and post-emergence data, respectively, are set forth in TABLES V AND VI, for compounds having the formula illustrated in TABLE II.

[16] = system: Barnyard grass (BG); assay: Post-emergence herbicide test; assay type: in vivo; conditions: Echinochloa crus-galli, 336 h, two weeks after treatment; for pest or weed control at 8966.8 g/ha: 8 lb/acre
Outline: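 Greenhouse pot-grown barnyard grass seedlings sprayed post-emergence at 8 lbs active compound per acre (some at 4 lbs/acre) in 38 gallons per acre, then sub-irrigated. Injury or control rated visually two weeks after treatment.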

[17] = system: Johnson grass (JG); assay: Post-emergence herbicide test; assay type: in vivo, Sorgum helepense; conditions: Sorghum halepense, 336 h, two weeks after treatment; for pest or weed control at 8966.8 g/ha: 8 lb/acre
Outline: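 Greenhouse pot-grown seedlings sprayed post-emergence at 8 lbs compound per acre (some at 4 lbs/acre) in 38 gallons per acre spray volume. Sub-irrigated thereafter. Injury/control rated visually two weeks after treatment.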

[18] = system: Cotton (CT); assay: Post-emergence herbicide test; assay type: in vivo, Gossypium hirsutum var. DPL smooth leaf; conditions: Gossypium hirsutum, post-emergence, 336 h, two weeks after treatment; for pest or weed control at 8966.8 g/ha: 8 lb/acre
Outline: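 Cotton (Gossypium hirsutum var. DPL smooth leaf) was grown in 3' plastic pots of potting soil, four seeds per pot, planted at a depth equal to the seed diameter and watered by sub-irrigation. At the stage of expanded cotyledons with the first true leaf 1' long, plants were sprayed post-emergence in a hood with a fixed nozzle over a moving belt. Percent control was rated visually two weeks later.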

[19] = system: Amaranth pigweed (PW); assay: Post-emergence herbicide test; assay type: in vivo, Amaranthus retroflexus; conditions: 336 h, two weeks after treatment; for pest or weed control at 8966.8 g/ha: 8 lb/acre
Outline: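 Pot-grown pigweed was sprayed post-emergence at the 1–2 true-leaf stage with compound at rates equivalent to 8 lbs per acre (formulations also prepared for 4 lbs/acre) in 38 gallons per acre, using a hood with fixed nozzle. Plants were sub-irrigated in the greenhouse, and injury or control was rated visually two weeks after treatment.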

Row | SMILES | pest or weed control at 8966.8 g/ha [1] | pest or weed control at 8966.8 g/ha [2] | pest or weed control at 8966.8 g/ha [3] | pest or weed control at 8966.8 g/ha [4] | pest or weed control at 8966.8 g/ha [5] | pest or weed control at 8966.8 g/ha [6] | pest or weed control at 8966.8 g/ha [7] | pest or weed control at 8966.8 g/ha [8] | pest or weed control at 8966.8 g/ha [9] | pest or weed control at 8966.8 g/ha [10] | pest or weed control at 8966.8 g/ha [11] | pest or weed control at 8966.8 g/ha [12] | pest or weed control at 8966.8 g/ha [13] | pest or weed control at 8966.8 g/ha [14] | herbicidal effectiveness / selectivity, in words [15] | pest or weed control at 8966.8 g/ha [16] | pest or weed control at 8966.8 g/ha [17] | pest or weed control at 8966.8 g/ha [18] | pest or weed control at 8966.8 g/ha [19] | further results
1 | CN(C)C(=O)Nc1nnc(C(F)(F)F)s1 [Example 2, 1,1-Dimethyl-3-[5-Trifluoromethyl-2-(1,3,4-Thiadiazolyl)] Urea] | 80% | 90% | 90% | 60% | 90% | 80% | 50% | 70% | 60% | 90% | 60% | 100% | 90% | 100% | extremely effective when applied to a variety of crops and weed species | 60% | 40% | 90% | 90% | pest or weed control at 2241.7 g/ha ([1]; 2 lb/acre): 100%; pest or weed control at 4483.4 g/ha ([1]; 4 lb/acre): 90%; pest or weed control ([4]; 2 lb/acre): 100%; pest or weed control at 4483.4 g/ha ([4]; 4 lb/acre): 80%; pest or weed control ([9]; 2 lb/acre): 90%; pest or weed control at 4483.4 g/ha ([9]; 4 lb/acre): 90%; pest or weed control at 2241.7 g/ha ([11]; 2 lb/acre): 80%; pest or weed control at 4483.4 g/ha ([11]; 4 lb/acre): 70%; pest or weed control ([12]; 2 lb/acre): 100%; pest or weed control at 4483.4 g/ha ([12]; 4 lb/acre): 100%; pest or weed control at 2241.7 g/ha ([16]; 2 lb/acre): 90%; pest or weed control at 4483.4 g/ha ([16]; 4 lb/acre): 90%; pest or weed control ([17]; 2 lb/acre): 90%; pest or weed control at 4483.4 g/ha ([17]; 4 lb/acre): 30%; pest or weed control at 2241.7 g/ha ([18]; 2 lb/acre): 100%; pest or weed control at 4483.4 g/ha ([18]; 4 lb/acre): 90%; pest or weed control at 2241.7 g/ha ([19]; 2 lb/acre): 100%; pest or weed control at 4483.4 g/ha ([19]; 4 lb/acre): 100%
2 | CSc1nnc(N(C)C(=O)N(C)C)s1 [Example 5, 1,1,3-trimethyl-3-[5-methylthio-2-(1,3,4-thiadiazolyl)] urea] | 100% | 50% | 90% | 100% | 100% | 90% | 70% | 90% | 100% | 100% | 100% | 100% | 80% | 100% | extremely effective when applied to a variety of crops and weed species | 100% | 90% | 100% | 100% | –
